Assay results from patent US9301951B2 (Ardelyx, Inc., priority 2010, dated 2016).

Key:
Sprague-Dawley rats [1] = assay: In vivo bolus phosphorus challenge (serum phosphate elevation); details: rat; oral; drug dose 30; phosphate bolus 15 min after compound; serum 30 min post bolus
Protocol: By pretreating animals with a low phosphorus diet followed by the subsequent dosing of a phosphorus bolus, serum phosphorus levels were monitored after 30 minutes as a surrogate for intestinal phosphorus absorption. […] The in vivo bolus phosphorus challenge model used here mimics this model in rats.
Male, 7-week-old Sprague-Dawley rats (Charles-River laboratories international, Hollister, Calif.) were allowed to acclimatize for a minimum of 3 days before switching to a synthetic low-phosphorus diet (TD.85010, Harlan Teklad, Madison, Wis.) which contains 0.1% phosphorus and 0.6% calcium. At day 5, testing compounds or vehicle alone (as indicated) were orally administered at the indicated dose in a volume of 5 ml/kg, followed by a bolus gavage of monobasic sodium phosphate (1 mmol in 1 ml) 15 min after compound dosing. Serum was collected via retroorbital bleeding 30 min post phosphate bolus and phosphate levels were determined utilizing an ACE ALERA blood chemistry analyzer (Alfa Wassermann Diagnostic Technologies, West Caldwell, N.J.).
The extent of inhibition by test compounds on the elevation of serum phosphate levels in response to the bolus of phosphorus is shown in Table 12 (data are expressed as % Inhibition, with 6-10 animals per data point). The differences between groups were evaluated by one-way analysis of variance with Dunnett's post hoc tests.

rat NaP2b (SLC34A2) = molecular target: T1, rat NaP2b (SLC34A2) (Rattus norvegicus, UniProt Q9JJ09); assay: Inhibition of NaP2b-mediated Pi (33P) uptake in transfected HEK293 cells, rat NaP2b; type: cell-based; details: HEK293 cells transfected with rat NaP2b, 100 uM phosphate, 0.1 nM to 30 uM, read-out: pIC50 range for rat Nap2b (converted)
T1 construct: host or cells: HEK293
T1 sequence (Q9JJ09 1-695): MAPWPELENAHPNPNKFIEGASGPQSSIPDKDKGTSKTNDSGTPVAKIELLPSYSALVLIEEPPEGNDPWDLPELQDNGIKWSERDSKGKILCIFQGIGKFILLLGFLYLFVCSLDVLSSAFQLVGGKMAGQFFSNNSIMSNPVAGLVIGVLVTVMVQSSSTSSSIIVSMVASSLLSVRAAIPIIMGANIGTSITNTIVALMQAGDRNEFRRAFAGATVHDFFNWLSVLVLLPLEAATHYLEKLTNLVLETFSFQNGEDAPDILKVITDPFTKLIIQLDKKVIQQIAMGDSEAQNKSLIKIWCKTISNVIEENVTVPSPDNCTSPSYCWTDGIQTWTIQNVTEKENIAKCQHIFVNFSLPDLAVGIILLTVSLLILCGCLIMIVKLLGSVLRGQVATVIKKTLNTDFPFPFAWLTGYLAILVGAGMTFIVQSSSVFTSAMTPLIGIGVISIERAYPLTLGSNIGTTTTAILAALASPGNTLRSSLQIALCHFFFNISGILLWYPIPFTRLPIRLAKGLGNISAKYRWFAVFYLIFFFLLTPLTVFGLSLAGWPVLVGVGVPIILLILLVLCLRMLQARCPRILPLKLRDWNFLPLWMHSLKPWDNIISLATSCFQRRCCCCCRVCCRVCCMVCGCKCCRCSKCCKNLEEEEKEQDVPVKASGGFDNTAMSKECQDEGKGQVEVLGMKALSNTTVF
In short: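 HEK293 cells transiently transfected with rat NaP2b; 33P-phosphate uptake measured in sodium or choline buffer (100 uM KH2PO4, PiT-silencing agent, pH 7.4) with compound at twelve concentrations, 0.1 nM–30 uM, in duplicate. Lysed cells counted by scintillation; pIC50 derived from concentration-response.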

[2] = Fecal recovery of orally administered compounds; type: in vivo; details: rat; oral gavage; feces collected until 48 hr after dosing
Excerpt: In this respect, it is understood that a recovered compound can include the sum of the parent compound and its metabolites derived from the parent compound, e.g., by means of hydrolysis, conjugation, reduction, oxidation, N-alkylation, glucuronidation, acetylation, methylation, sulfation, phosphorylation, or any other modification that adds atoms to or removes atoms from the parent compound, wherein the metabolites are generated via the action of any enzyme or exposure to any physiological environment including, pH, temperature, pressure, or interactions with foodstuffs as they exist in the digestive milieu. Measurement of fecal recovery of compound and metabolites can be carried out using standard methodology. For example, compound can be administered orally at a suitable dose (e.g., 10 mg/kg) and feces are then collected at predetermined times after dosing (e.g., 24 hours, 48 hours, 72 hours). Parent compound and metabolites can be extracted with organic solvent and analyzed quantitatively using mass spectrometry. A mass balance analysis of the parent compound and metabolites (including, parent=M, metabolite 1 [M+16], and metabolite 2 [M+32]) can be used to determine the percent recovery in the feces.
Quantitative determination of test compound level in feces after oral gavage was performed using the same set of animals used to determine test compound concentration in plasma (Example 352). The animals were kept in metabolic cages and feces were collected from the time of dosing until 48 hr after dosing. Upon collection, feces were dried by lyophilization and ground to a visually homogenous powder. Duplicate samples of ground feces from each individual animal were weighed out and extracted using organic solvent. Extracted samples were then diluted into mobile phase and test compound levels were quantitatively determined by LC-MS/MS analysis as described in Example 352 except that the standard curve was prepared in a feces matrix. Extraction conditions were not optimized for individual compounds, and thus may represent a minimal level of recovery.

[3] = Stability of compounds in simulated intestinal fluid (SIF); type: in vitro ADME; details: simulated intestinal fluid (USP, 3 mg/mL pancreatin), 1-20 μM, incubation time 6 hr, relative to t=0
Protocol: (§1) Test compounds were incubated at 1-20 μM in simulated gastric fluid (SGF; standard USP solution with 3 mg/mL pepsin) or simulated intestinal fluid (SIF; standard USP solution with 3 mg/mL pancreatin) for 3 hr or 6 hr. HPLC-UV or HPLC-MS were used to determine test compound levels using peak area %. Results (Table 14) were reported as the percentage of test compound remaining after incubation in a given condition relative to test compound present at t=0 in the same condition.

[4] = Stability of compounds in simulated gastric fluid (SGF); type: in vitro ADME; details: simulated gastric fluid (USP, 3 mg/mL pepsin), 1-20 μM, incubation time 6 hr, relative to t=0
Protocol: as §1

human NaP2b (SLC34A2) = molecular target: T2, human NaP2b (SLC34A2) (Homo sapiens, UniProt O95436); assay: Inhibition of NaP2b-mediated Pi (33P) uptake in transfected HEK293 cells, human NaP2b; type: cell-based; details: HEK293 cells transfected with human NaP2b, 100 uM phosphate, 0.1 nM to 30 uM, read-out: pIC50 range for human NaP2b (converted)
T2 construct: host or cells: HEK293
T2 sequence (O95436 1-690): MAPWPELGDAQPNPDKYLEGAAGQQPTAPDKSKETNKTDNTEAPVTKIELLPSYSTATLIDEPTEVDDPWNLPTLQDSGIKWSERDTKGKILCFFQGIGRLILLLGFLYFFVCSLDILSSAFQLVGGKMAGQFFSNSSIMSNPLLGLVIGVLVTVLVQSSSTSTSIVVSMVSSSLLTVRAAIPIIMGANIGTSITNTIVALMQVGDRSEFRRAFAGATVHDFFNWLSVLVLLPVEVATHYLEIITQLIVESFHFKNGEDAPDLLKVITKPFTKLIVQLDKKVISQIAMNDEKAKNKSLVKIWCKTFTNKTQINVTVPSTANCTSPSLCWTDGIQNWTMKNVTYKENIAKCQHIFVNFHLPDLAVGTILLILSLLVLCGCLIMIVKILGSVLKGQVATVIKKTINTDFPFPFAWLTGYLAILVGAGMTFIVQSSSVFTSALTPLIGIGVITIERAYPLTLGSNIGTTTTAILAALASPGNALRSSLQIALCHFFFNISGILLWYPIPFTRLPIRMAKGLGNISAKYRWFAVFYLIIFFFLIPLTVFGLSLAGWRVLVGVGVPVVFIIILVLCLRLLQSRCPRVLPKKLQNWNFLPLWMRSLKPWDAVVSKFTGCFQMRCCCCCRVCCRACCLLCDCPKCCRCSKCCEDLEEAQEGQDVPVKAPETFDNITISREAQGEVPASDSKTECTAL
Protocol: HEK293 cells were obtained from the American Type Culture collection and propagated per their instructions. Expression clones for rat and human NaP2b (SLC34A2) were obtained from Open Biosystems (Catalog numbers MRN1768-9510282, and MHS1010-99823026, respectively). The sequence of the human protein was mutated to insert a threonine after residue 37, and to introduce a N39D mutation.
The rate of phosphate (Pi) uptake into HEK293 cells was measured using a modification of the method described by Mohrmann et al. (Mohrmann, I., Mohrmann, M., Biber, J., and Murer, H. (1986) Am. J. Phys. 250(3 Pt 1):G323-30.) Transfected HEK293 cells were treated with a pharmacological agent to minimize endogenous PiT-mediated phosphate transport activity, such that the only remaining sodium-dependent phosphate transport activity is that which was bestowed by introduction of the NaP2b genes.
Cells were seeded into 96-well plates at 25,000 cells/well and cultured overnight. Lipofectamine 2000 (Invitrogen) was used to introduce the NaP2b cDNA, and the cells were allowed to approach confluence during a second overnight incubation. […] Cells were then overlayed with either choline uptake buffer or sodium uptake buffer (14 mM Tris, 137 mM sodium chloride, 5.4 mM KCl, 2.8 mM CaCl2, 1.2 mM MgSO4, 100 uM KH2PO4, PiT-silencing agent, 1 mg/mL Bovine Serum Albumin, pH 7.4) containing 6-9 uCi/mL ^33P orthophosphoric acid (Perkin Elmer) and test compound. Each compound was tested at twelve concentrations ranging from 0.1 nM to 30 uM. Assays were run in duplicate.
After incubation for 3-30 minutes at room temperature, assay mixtures were removed, and the cells were washed twice with ice cold stop solution (137 mM sodium chloride, 14 mM Tris, pH 7.4). Cells were lysed by addition of 20 μL 0.1% Tween 80 followed by 100 μL scintillation fluid, and counted using a TopCount (Perkin Elmer).
pIC50 (the negative log of the […]) values of the test compounds were calculated using GraphPad Prism.

Sprague-Dawley rats [5] = assay: In vivo co-dosing in chow (urine P out / P consumed); details: feed or water; rat; drug in chow, nominal 100 mg/kg/day (mean dose per line in table); urine 24-96 h; read-out: Mean % inhibition Urine Pout/P consumed
Excerpt: Male, 7-week-old Sprague-Dawley rats (Charles-River laboratories international, Hollister, Calif.) were allowed to acclimate for a minimum of 3 days. The experiment was initiated by switching animals to a synthetic diet (0.6% phosphorus and 0.6% calcium, Harlan Teklad TD.84122) for four days. After this time, the animals were placed into metabolic cages for daily monitoring of food and water consumption, as well as urine and fecal collections. Test compounds were incorporated into the powdered diet listed above containing 3% chocolate flavoring (w/w, BioServ #7345) at 1.3 mg test compound per gram of diet to achieve an average daily nominal dose of 100 mg/kg/day. The actual dose received by each animal was later determined by measuring prepared diet consumption and body weight. Urine samples were collected in three daily periods from 24-48, 48-72, and 72-96 hours of drug dosing. […] Phosphorus levels in the urine were determined by anion exchange chromatography using a Dionex ICS-3000 ion chromatography system. […] Elution of urine phosphate ions was monitored via conductivity detector and reported as ppm relative to a standard ion solution containing phosphate. Daily urinary P output relative to the P consumed in the prepared diet for each animal was calculated. […] The differences between the means of control and treated groups were evaluated by t tests. […]

| IC50 (rat NaP2b (SLC34A2)) | IC50 (human NaP2b (SLC34A2)) | SMILES | % Inhibition of Serum P elevation (Sprague-Dawley rats [1]) | % recovered in feces [2] | % remaining, SIF [3] | % remaining, SGF [4] | inhibition in vivo at 100 mg/kg/day (Sprague-Dawley rats [5]) |
| --- | --- | --- | --- | --- | --- | --- | --- |
| < 1000 nM | < 1000 nM | CN(CCN1CCOCC1)C(=O)c1cccc(C(=O)Nc2ccc(N3CCCCC3)cc2-c2cc(C(=O)N[C@H]3CCCc4ccccc43)ccn2)c1 [Example 37, (S)—N1-Methyl-N1-(2-morpholinoethyl)-N3-(4-(piperidin-1-yl)-2-(4-((1,2,3,4-tetrahydronaphthalen-1-yl)carbamoyl)pyridin-2-yl)phenyl)isophthalamide] |  |  |  |  | ≤ 10% |
| 1000 to 7940 nM | < 1000 nM | CCN(CC)c1ccc(NC(=O)c2cccc(COCCOCCOCCOCCOCCOCCOC(=O)NCCOCCOCCOCCOCCOCCOCCOC)c2)c(-c2cc(C(=O)NCc3cccc(C(F)(F)F)c3)ccn2)c1 [Example 174, 1-(3-(4-(diethylamino)-2-(4-(3-(trifluoromethyl)benzylcarbamoyl)pyridin-2-yl)phenylcarbamoyl)phenyl)-2,5,8,11,14,17-hexaoxanonadecan-19-yl 2,5,8,11,14,17,20-heptaoxadocosan-22-ylcarbamate] |  |  | >80% | >80% |  |

The next lines start with the molecule.

| SMILES | IC50 (rat NaP2b (SLC34A2)) | IC50 (human NaP2b (SLC34A2)) | % Inhibition of Serum P elevation (Sprague-Dawley rats [1]) | % recovered in feces [2] | % remaining, SIF [3] | % remaining, SGF [4] | inhibition in vivo at 100 mg/kg/day (Sprague-Dawley rats [5]) |
| --- | --- | --- | --- | --- | --- | --- | --- |
| O=C(O)CCSCc1cccc(C(=O)Nc2ccc(Cl)cc2-c2cc(C(=O)NCc3cccc(C(F)(F)F)c3)ccn2)c1 [Example 21, 3-((3-((4-Chloro-2-(4-((3-(trifluoromethyl)benzyl)carbamoyl)pyridin-2-yl)phenyl)carbamoyl)benzyl)thio)propanoic acid] | 1000 to 7940 nM |  | 10-20% |  |  |  |  |
| CN(CCN1CCOCC1)C(=O)c1cccc(C(=O)Nc2ccc(OC3CCC3)cc2-c2cc(C(=O)NCc3cccc(C(F)(F)F)c3)ccn2)c1 [Example 26, N1-(4-Cyclobutoxy-2-(4-((3-(trifluoromethyl)benzyl)carbamoyl)pyridin-2-yl)phenyl)-N3-methyl-N3-(2-morpholinoethyl)isophthalamide] | 1000 to 7940 nM |  |  | <20% | 60-80% | >80% |  |
| O=C(O)CCSCc1cccc(C(=O)Nc2ccc(N3CCOCC3)cc2-c2cc(C(=O)NCc3cccc(C(F)(F)F)c3)ccn2)c1 [Example 14, 3-((3-((4-Morpholino-2-(4-((3-(trifluoromethyl)benzyl)carbamoyl)pyridin-2-yl)phenyl)carbamoyl)benzyl)thio)propanoic acid] | 10000 to 31600 nM |  | 10-20% |  |  |  |  |
